Consider one molecule from BindingDB's records for doi:10.1021/acs.jmedchem.6b00596 (University of Connecticut Health Center, 2016).

The structures appear in SMILES notation.

The test addresses Ubiquitin carboxyl-terminal hydrolase 1/WD repeat-containing protein 48 (Homo sapiens, UniProt O94782+Q8TAF3). Nature of the test: Inhibition of human USP1/UAF1 complex using Ub-Rho as substrate by qHTS assay. (qHTS replaces the single test concentration by a dilution series.)

Sequence of Ubiquitin carboxyl-terminal hydrolase 1/WD repeat-containing protein 48 (O94782 whole entry, looked up): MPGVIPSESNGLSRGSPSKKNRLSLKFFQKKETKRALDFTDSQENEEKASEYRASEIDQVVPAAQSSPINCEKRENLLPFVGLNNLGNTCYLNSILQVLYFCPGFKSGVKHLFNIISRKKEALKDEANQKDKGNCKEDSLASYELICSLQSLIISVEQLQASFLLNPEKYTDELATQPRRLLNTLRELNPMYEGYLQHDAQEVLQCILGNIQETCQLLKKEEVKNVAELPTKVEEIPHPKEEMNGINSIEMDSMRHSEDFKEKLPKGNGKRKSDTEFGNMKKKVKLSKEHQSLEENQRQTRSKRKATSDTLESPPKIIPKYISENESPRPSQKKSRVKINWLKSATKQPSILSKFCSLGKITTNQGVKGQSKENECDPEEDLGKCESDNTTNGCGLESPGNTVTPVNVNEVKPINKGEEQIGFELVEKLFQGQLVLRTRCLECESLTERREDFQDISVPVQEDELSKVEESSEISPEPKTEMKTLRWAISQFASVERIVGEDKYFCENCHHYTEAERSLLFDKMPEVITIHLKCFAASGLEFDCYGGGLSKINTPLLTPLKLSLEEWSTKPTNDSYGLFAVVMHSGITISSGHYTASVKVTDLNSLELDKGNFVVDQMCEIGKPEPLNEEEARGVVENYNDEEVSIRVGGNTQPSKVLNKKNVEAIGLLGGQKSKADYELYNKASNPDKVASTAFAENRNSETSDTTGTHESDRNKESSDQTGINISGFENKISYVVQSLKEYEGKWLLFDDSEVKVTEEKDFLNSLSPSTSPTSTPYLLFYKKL
Sequence of Ubiquitin carboxyl-terminal hydrolase 1/WD repeat-containing protein 48 (Q8TAF3 whole entry, looked up): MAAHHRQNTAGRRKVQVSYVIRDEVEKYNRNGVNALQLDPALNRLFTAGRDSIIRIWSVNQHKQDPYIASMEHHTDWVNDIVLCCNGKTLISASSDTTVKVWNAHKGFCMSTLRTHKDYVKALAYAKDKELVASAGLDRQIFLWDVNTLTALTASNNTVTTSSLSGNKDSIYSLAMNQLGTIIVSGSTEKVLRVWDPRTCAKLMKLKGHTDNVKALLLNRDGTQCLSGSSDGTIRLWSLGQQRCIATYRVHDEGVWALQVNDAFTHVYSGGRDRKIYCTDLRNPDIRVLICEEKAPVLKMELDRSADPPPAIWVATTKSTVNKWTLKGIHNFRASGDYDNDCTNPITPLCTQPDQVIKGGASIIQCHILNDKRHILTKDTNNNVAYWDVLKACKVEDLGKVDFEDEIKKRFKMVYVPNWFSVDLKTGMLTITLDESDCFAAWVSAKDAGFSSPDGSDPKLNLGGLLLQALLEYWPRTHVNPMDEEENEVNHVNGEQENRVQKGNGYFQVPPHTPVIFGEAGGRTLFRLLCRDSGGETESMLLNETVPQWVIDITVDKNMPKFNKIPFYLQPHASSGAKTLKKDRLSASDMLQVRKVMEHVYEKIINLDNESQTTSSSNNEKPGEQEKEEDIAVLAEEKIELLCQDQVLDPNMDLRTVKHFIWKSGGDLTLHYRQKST

As for `OCCN1CCN(CC/C=C2/c3ccccc3Sc3ccc(C(F)(F)F)cc32)CC1` [Fluphenthixol], the IC50 (as a rule, the midpoint of a concentration-inhibition curve) came to 7 µM.
